# Like-named read-outs stand apart in the source and are kept apart here.
# Key:
# [1] = test system: same patient population (newly diagnosed GBM); assay: EORTC Phase III trial, Stupp et al. 2005 (RT plus concomitant and adjuvant temozolomide); assay type: in vivo, human; conditions: 2005 n = 287, conversion
# Text: (§1) For assessing the efficacy of the treatment in terms of overall survival, the overall failure rate were estimated and compared to the failure rate of 0.6 per-person year of follow-up regarding the Phase III trial done by Stupp et al. in the same patient population treated with RT plus concomitant and adjuvant temozolomide.
# [2] = test system: GBM patients; assay: RTOG 0525 trial, 2013 (STD and DD arms); assay type: in vivo, human; conditions: conversion
# [3] = test system: same patient population (newly diagnosed GBM); conditions: Stupp et al, 2005 (RT + temozolomide); cited from earlier work
# [4] = test system: newly diagnosed GBM patients; assay: Phase I GBM study: safety, DLT, MTD, adverse events; assay type: in vivo, human
# Experimental: Study Group 1 Treatment Cycles 4 weeks each (N=23)
# Study Group 2 Treatment Cycles 10 weeks each (N=20)
# No cytochrome P450-inducing anticonvulsants. However, Gliadel was permitted.
# Group 1: TMZ (150-200 mg/m^2 given 5 days/month×6 cycles)—standard dose with BSI-201 starting at 5.1 mg/kg.
# Group 2: TMZ (75 mg/m^2 daily 42 days on 30 days off×3 cycles)—metronomic dose with BSI-201 starting at 5.1 mg/kg.
# Using modified continual reassessment method, MTD was defined for metronomic and standard dose TMZ. 6 dose levels were tested (lowest 5.1 mg/kg-highest 9.5 mg/kg IV 2×/wk). […] The DLTs across both groups were: rash (1), hypersensitivity reaction (1), fatigue (1) and a thromboembolic event (1). […] Phase 2 dose defined as 8 mg/kg IV 2×/wk with standard TMZ and 8.6 mg/kg IV 2×/wk with metronomic TMZ.
# [5] = test system: adult patients with newly diagnosed glioblastoma multiforme (GBM); assay: Phase II GBM trial (ABTC0703): overall survival; assay type: in vivo, human
# Experimental: 76 patients were recruited for this study.
# The following treatment schema (also see FIG. 2).
# RT: 60 Gy (total) TMZ: Daily 75 mg/m^2
# BSI-201: once per day, twice a week (8.0 mg/kg IV q2 wk)
# Rest (4 weeks) with no treatment.
# Maintenance Cycles 1-6 (4 weeks)
# BSI-201: once per day, twice a week (8.6 mg/kg IV q2 wk)
# as §1
# The primary endpoint was death due to all causes. The survival time is defined from time of histological diagnosis to death occurrence. The overall failure rate was expressed as hazard of failure per person-year of follow-up. The total patient population for this part of the study was defined as all patients who have met the eligibility criteria, not met ineligibility criteria, and signed patient informed consent.
# It yield above 90% power to detect a 30% reduction in hazard rate with observed hazard ratio of 0.7 (0.42 vs. 0.6) at an alpha level of 0.1 to be significant. The overall failure rate was estimated by dividing the number of events (deaths) by the total exposure time in the study cohort along with 95% confidence intervals. Survival probability and median time of survival was calculated using Kaplan-Meier method.
# [6] = human, in vivo, iv
# Text: It was a single arm, multi dose, dose escalating trial in newly diagnosed GBM patients. The total number of patients was 43, with about 5 patients per cohort. Patients who tolerated radiation (XRT) and temozolomide (TMZ) were recruited. Inclusion criteria included completion of XRT and TMZ without grade 3 or 4 toxicity and labs within acceptable range within 6 weeks of completing XRT. The end points included safety, maximum tolerated dose (MTD), and signal of activity.
# The patients were separated into two study groups with the following treatment schema (also see FIG. 1).
# Continuous Reassessment Method (CRM) was used to determine dose escalation. PK was drawn at cycle 1, 2, 3 and off treatment. PD via PBMCs was drawn at cycle 1, 2, 3 and off treatment. No cytochrome P450-inducing anticonvulsants. However, Gliadel was permitted.
# Dosing is IV 2×/week continuous.
smiles,measurement,setting,value
Cn1nnc2c(C(N)=O)ncn2c1=O [temozolomide],Hazard Rate (per person year of follow-up),[1],0.6 per person year of follow-up
same,Hazard Rate (per person year of follow-up),"[2]; RTOG 0525, 2013 DD arm, n = 422",0.558 per person year of follow-up
same,Hazard Rate (per person year of follow-up),"[2]; RTOG 0525, 2013 STD arm, n = 411",0.501 per person year of follow-up
same,Neutrophil Count Decreased,[3],7%
same,Platelet Count Decreased,[3],12%
same,White Blood Cell Decreased,[3],7%
"NC(=O)c1ccc(I)c([N+](=O)[O-])c1 [Iniparib, 4-iodo-3-nitrobenzamide]",Phase 2 dose,[4]; IV 2×/wk with metronomic TMZ,8.6 mg/kg
same,Phase 2 dose,[4]; IV 2×/wk with standard TMZ,8 mg/kg
same,DLT: fatigue (number),"[4]; human, in vivo",1
same,DLT: hypersensitivity reaction (number),"[4]; human, in vivo",1
same,DLT: rash (number),"[4]; human, in vivo",1
same,DLT: thromboembolic event (number),"[4]; human, in vivo",1
same,White counts decreased,"[4]; human, in vivo",22 (51) No. (% of pts)
same,"Median Overall Survival, mOS, MGMT methylated","[5]; ABTC0703, n = 29",27 (n = 29) Months
same,"Median Overall Survival, mOS, MGMT unmethylated","[5]; ABTC0703, n = 37",15.8 (n = 37) Months
same,Hazard Rate (per person year of follow-up),"[5]; ABTC0703 n = 76, hazard rate of death",0.403 per person year of follow-up
same,"Median Overall Survival Months, (95% CI)","[5]; ABTC0703 n = 76, iniparib + RT + TMZ, then iniparib + TMZ maintenance",21.6 (16.1-23.7) Months
same,Comparison with RTOG 0525 (2013),[5]; extrapolated and not pre-planned analysis,improved
same,Reduction of HR versus Stupp et al 2005,"[5]; single arm phase 2, efficacy endpoint met",≥ 25%
NC(=O)c1ccc(I)c(N)c1 [IABM],Cmax,[6]; 5.1 mg/kg,5.7 ± 4.1 ng/mL
same,Cmax,[6]; 6.1 mg/kg,7.2 ± 1.8 ng/mL
same,Cmax,[6]; 6.8 mg/kg,8.4 ± 3.7 ng/mL
same,Cmax,[6]; 8 mg/kg,10.3 ± 2.9 ng/mL
same,Cmax,[6]; 8.6 mg/kg,9.7 ± 2.4 ng/mL
same,Cmax,[6]; 9.5 mg/kg,13.6 ± 5.3 ng/mL

# From patent publication US11433075B2, “Methods of treating glioblastoma” (TriAct Therapeutics, Inc., priority 2017, dated 2022)
